Assay results reported in patent US20210284952A1, “METHODS OF APPLYING ACETATE TOXICITY AND INDUCING ACETATE UPTAKE IN MICROALGAE CULTURES” (HELIAE DEVELOPMENT LLC, priority 2016, published 2021).
Read-outs that look alike come from different tables or passages of the source.

Experiments:
[1] = tested on: Aurantiochytrium sp. HS399; details: for Cell Dry Weight of Aurantiochytrium: sodium acetate 100 g/L
Protocol: Cultures of Aurantiochytrium sp. […] 100 mL volume cultures were prepared in 250 mL flasks, and cultured at a pH of 7.0, temperature of 27° C., a shaking frequency of 180 rpm, in the dark for 5 days (120 hours). The cultures were inoculated at the same cell density.

[2] = tested on: Chlorella sp. HS26
Protocol: Cultures of Chlorella sp. […] 100 mL volume cultures were prepared in 250 mL flasks, and cultured at a pH of 7.5, temperature of 25° C., a shaking frequency of 100 rpm, and a light intensity of 100 μM photon/m^2 s for 7 days (168 hours).

[3] = tested on: Aurantiochytrium sp. HS399; details: for Cell Dry Weight of Aurantiochytrium: 2 g/L Na Acetate
Protocol: This experiment was conducted to determine the effect of different culture pH levels on the growth of Aurantiochytrium sp. HS399. Duplicate 100 ml flasks of axenic cultures of Aurantiochytrium were adjusted to initial pH levels of 4, 5, 6, 7, and 8. The culture pH was adjusted using either hydrochloric acid (HCl) or potassium hydroxide (KOH). […] Samples of the flask culture were taken initially and every other day over a five-day period (120 hours).

In the case of `CC(=O)[O-].[Na+]` [Sodium Acetate, sodium acetate], the “Cell Dry Weight of Aurantiochytrium” value ([1]; 0 h) is reported as 2.7 g/L, the “Cell Dry Weight of Aurantiochytrium” value ([1]; 24 h) is reported as 1.7 g/L and the “Cell Dry Weight of Aurantiochytrium” value ([1]; 40 h) is reported as 0.7 g/L. The acetate concentration tolerance ([1]; sodium acetate in the culture, pH 7.0) was “around 100 g/L”, the growth ([2]; 2.5 g/L sodium acetate) was 0.620 g/L day and the “time to reach exponential phase” value ([2]; 2.5 g/L sodium acetate) was 48 h. For the same compound, the growth ([2]; 5 g/L sodium acetate) was 0.065 g/L day, the Chlorella dry weights ([2]; sodium acetate 2.5 g/L, 0 h) was 0.12 g/L and the Chlorella dry weights ([2]; sodium acetate 2.5 g/L, 24 h) was 0.23 g/L. For the same compound, the Chlorella dry weights ([2]; sodium acetate 2.5 g/L, 48 h) was 0.85 g/L, the Chlorella dry weights ([2]; sodium acetate 2.5 g/L, 72 h) was 1.10 g/L and the Chlorella dry weights ([2]; sodium acetate 2.5 g/L, 144 h) was 2.72 g/L. For the same compound, the Chlorella dry weights ([2]; sodium acetate 2.5 g/L, 168 h) was 3.23 g/L, the Chlorella dry weights ([2]; sodium acetate 5 g/L, 0 h) was 0.12 g/L and the Chlorella dry weights ([2]; sodium acetate 5 g/L, 24 h) was 0.19 g/L. The Chlorella dry weights ([2]; sodium acetate 5 g/L, 48 h) was 0.25 g/L, the Chlorella dry weights ([2]; sodium acetate 5 g/L, 72 h) was 0.55 g/L and the Chlorella dry weights ([2]; sodium acetate 5 g/L, 144 h) was 1.89 g/L. For the same compound, the Chlorella dry weights ([2]; sodium acetate 5 g/L, 168 h) was 2.41 g/L, the Chlorella dry weights ([2]; sodium acetate 10 g/L, 0 h) was 0.12 g/L and the Chlorella dry weights ([2]; sodium acetate 10 g/L, 24 h) was 0.13 g/L. The Chlorella dry weights ([2]; sodium acetate 10 g/L, 48 h) was 0.16 g/L, the Chlorella dry weights ([2]; sodium acetate 10 g/L, 72 h) was 0.11 g/L and the Chlorella dry weights ([2]; sodium acetate 10 g/L, 144 h) was 0.09 g/L. It also gave a Chlorella dry weights ([2]; sodium acetate 10 g/L, 168 h) of 0.00 g/L, a Chlorella dry weights ([2]; sodium acetate 20 g/L, 0 h) of 0.12 g/L and a Chlorella dry weights ([2]; sodium acetate 20 g/L, 24 h) of 0.16 g/L. The Chlorella dry weights ([2]; sodium acetate 20 g/L, 48 h) was 0.13 g/L, the Chlorella dry weights ([2]; sodium acetate 20 g/L, 72 h) was 0.12 g/L and the Chlorella dry weights ([2]; sodium acetate 20 g/L, 144 h) was 0.07 g/L. It also gave a Chlorella dry weights ([2]; sodium acetate 20 g/L, 168 h) of 0.00 g/L, a Chlorella dry weights ([2]; sodium acetate 30 g/L, 0 h) of 0.12 g/L and a Chlorella dry weights ([2]; sodium acetate 30 g/L, 24 h) of 0.14 g/L. It also gave a Chlorella dry weights ([2]; sodium acetate 30 g/L, 48 h) of 0.11 g/L, a Chlorella dry weights ([2]; sodium acetate 30 g/L, 72 h) of 0.09 g/L and a Chlorella dry weights ([2]; sodium acetate 30 g/L, 144 h) of 0.08 g/L. It also gave a Chlorella dry weights ([2]; sodium acetate 30 g/L, 168 h) of 0.00 g/L, a Chlorella dry weights ([2]; sodium acetate 40 g/L, 0 h) of 0.12 g/L and a Chlorella dry weights ([2]; sodium acetate 40 g/L, 24 h) of 0.11 g/L. The Chlorella dry weights ([2]; sodium acetate 40 g/L, 48 h) was 0.09 g/L, the Chlorella dry weights ([2]; sodium acetate 40 g/L, 72 h) was 0.10 g/L and the Chlorella dry weights ([2]; sodium acetate 40 g/L, 144 h) was 0.09 g/L. For the same compound, the Chlorella dry weights ([2]; sodium acetate 40 g/L, 168 h) was 0.00 g/L, the acetate concentration tolerance ([2]; sodium acetate in the culture, pH 7.5) was “approximately 7.5 g/L” and the “Cell Dry Weight of Aurantiochytrium” value ([3]; pH 4, 0 h) was 0.28 g/L. The “Cell Dry Weight of Aurantiochytrium” value ([3]; pH 4, 24 h) was 1.1 g/L, the “Cell Dry Weight of Aurantiochytrium” value ([3]; pH 4, 48 h) was 0.79 g/L and the “Cell Dry Weight of Aurantiochytrium” value ([3]; pH 4, 72 h) was 0.51 g/L. The “Cell Dry Weight of Aurantiochytrium” value ([3]; pH 5, 0 h) was 0.25 g/L, the “Cell Dry Weight of Aurantiochytrium” value ([3]; pH 5, 24 h) was 5.15 + g/L and the “Cell Dry Weight of Aurantiochytrium” value ([3]; pH 5, 48 h) was 15.2 g/L. For the same compound, the “Cell Dry Weight of Aurantiochytrium” value ([3]; pH 5, 72 h) was 19.4 g/L, the “Cell Dry Weight of Aurantiochytrium” value ([3]; pH 6, 0 h) was 0.18 g/L and the “Cell Dry Weight of Aurantiochytrium” value ([3]; pH 6, 24 h) was 5.1 g/L. The “Cell Dry Weight of Aurantiochytrium” value ([3]; pH 6, 48 h) was 11.55 g/L, the “Cell Dry Weight of Aurantiochytrium” value ([3]; pH 6, 72 h) was 16 g/L and the “Cell Dry Weight of Aurantiochytrium” value ([3]; pH 7, 0 h) was 0.3 g/L. For the same compound, the “Cell Dry Weight of Aurantiochytrium” value ([3]; pH 7, 24 h) was 12.25 g/L, the “Cell Dry Weight of Aurantiochytrium” value ([3]; pH 7, 48 h) was 10.8 g/L and the “Cell Dry Weight of Aurantiochytrium” value ([3]; pH 7, 72 h) was 15.7 g/L. For the same compound, the “Cell Dry Weight of Aurantiochytrium” value ([3]; pH 8, 0 h) was 0.25 g/L, the “Cell Dry Weight of Aurantiochytrium” value ([3]; pH 8, 24 h) was 9.1 g/L and the “Cell Dry Weight of Aurantiochytrium” value ([3]; pH 8, 48 h) was 8.95 g/L. For the same compound, the “Cell Dry Weight of Aurantiochytrium” value ([3]; pH 8, 72 h) was 12.6 g/L and the “cell dry weight over time” value ([3]; 2 g/L sodium acetate, pH of 4) was “did not increase over time”.
